Test results: the CheMixHub viscosity set

Assay: xn = mol fraction of the nth substance listed

CCC(=O)CC + CCCCOC(C)=O
viscosity [mPa·s], 101 kPa
Conditions	x2 = 0.0808	x2 = 0.1652	x2 = 0.2542	x2 = 0.349	x2 = 0.4451	x2 = 0.5459	x2 = 0.65	x2 = 0.7613	x2 = 0.8771
298.15 K	0.478	0.5	0.523	0.543	0.558	0.573	0.59	0.614	0.645
303.15 K	0.445	0.464	0.485	0.5	0.513	0.526	0.541	0.562	0.589
308.15 K	0.419	0.437	0.455	0.471	0.483	0.495	0.509	0.528	0.554
313.15 K	0.395	0.411	0.429	0.441	0.452	0.461	0.474	0.491	0.514

COC(=O)CCCCC(=O)OC + C1CCOC1
viscosity [mPa·s], 101 kPa
Conditions	293.15 K	298.15 K	303.15 K	308.15 K	313.15 K	318.15 K	323.15 K
x1 = 0.1	0.6562	0.6229	0.5909	0.5598	0.5294	0.4989	0.4706
x1 = 0.2	0.8354	0.7852	0.7403	0.6982	0.6588	0.6205	0.5877
x1 = 0.3	1.042	0.9731	0.9111	0.8539	0.8024	0.7543	0.7132
x1 = 0.3994	1.277	1.183	1.1	1.026	0.958	0.906	0.8459
x1 = 0.5001	1.545	1.42	1.311	1.217	1.134	1.063	0.9929
x1 = 0.5909	1.811	1.652	1.517	1.4	1.299	1.206	1.132
x1 = 0.5999	1.838	1.676	1.541	1.421	1.315	1.221	1.146
x1 = 0.7003	2.163	1.956	1.78	1.63	1.506	1.382	1.302
x1 = 0.7999	2.514	2.255	2.042	1.858	1.7	1.556	1.458
x1 = 0.8937	2.866	2.555	2.298	2.08	1.892	1.731	1.609
x1 = 0.8996	2.888	2.574	2.314	2.095	1.905	1.742	1.619

CCC(=O)CC + CN(C)c1ccccc1
viscosity [mPa·s], 101 kPa
Conditions	303.15 K	308.15 K
x2 = 0.0612	0.548	0.499
x2 = 0.1145	0.645	0.588
x2 = 0.1652	0.732	0.668
x2 = 0.2302	0.832	0.764
x2 = 0.3025	0.928	0.859
x2 = 0.3741	1.006	0.935
x2 = 0.4256	1.053	0.98
x2 = 0.5023	1.105	1.029
x2 = 0.5714	1.137	1.056
x2 = 0.6325	1.155	1.069
x2 = 0.7045	1.165	1.074
x2 = 0.7812	1.167	1.073
x2 = 0.8512	1.165	1.073

C1CCCC1 + CCC(C)=O
viscosity [mPa·s], 101.33 kPa
Conditions	293.15 K	298.15 K	303.15 K
x1 = 0.0472	0.397	0.377	0.358
x1 = 0.0981	0.395	0.375	0.358
x1 = 0.1929	0.394	0.372	0.354
x1 = 0.2932	0.39	0.37	0.353
x1 = 0.3753	0.39	0.37	0.352
x1 = 0.4966	0.393	0.373	0.354
x1 = 0.6189	0.394	0.374	0.355
x1 = 0.6838	0.398	0.377	0.359
x1 = 0.8034	0.407	0.387	0.367
x1 = 0.9061	0.419	0.397	0.377
x1 = 0.9499	0.426	0.405	0.383

C1CCCC1 + CCC(C)(C)O
viscosity [mPa·s], 101 kPa
Conditions	298.15 K	308.15 K
x1 = 0.0429	2.979	1.779
x1 = 0.067	2.668	1.62
x1 = 0.1245	2.256	1.413
x1 = 0.2079	1.793	1.151
x1 = 0.3116	1.297	0.9115
x1 = 0.3957	1.073	0.7831
x1 = 0.5173	0.8412	0.6798
x1 = 0.5982	0.7558	0.5719
x1 = 0.683	0.6454	0.5099
x1 = 0.8095	0.508	0.4267
x1 = 0.8844	0.4827	0.4072
x1 = 0.9127	0.4379	0.3726
x1 = 0.944	0.4169	0.3547

OCc1ccccc1 + O=[N+]([O-])c1ccccc1
303.15 K, 101 kPa
Conditions	viscosity [mPa·s]
x1 = 0.1725	1.292
x1 = 0.2352	1.292
x1 = 0.3083	1.389
x1 = 0.4517	1.657
x1 = 0.5919	2.015
x1 = 0.6592	2.234
x1 = 0.7706	2.658
x1 = 0.8314	2.956
x1 = 0.9106	3.486

NCCO + CCCO
viscosity [mPa·s], 101.3 kPa
Conditions	x1 = 0.0998	x1 = 0.1999	x1 = 0.3005	x1 = 0.4	x1 = 0.5	x1 = 0.6	x1 = 0.7	x1 = 0.8	x1 = 0.9
303.15 K	2.09	2.56	3.17	3.97	4.94	6.22	7.7	9.64	12
313.15 K	1.66	2	2.42	2.97	3.63	4.44	5.41	6.62	8.11
323.15 K	1.35	1.59	1.92	2.3	2.75	3.31	3.93	4.73	5.69

NCCO.O=S(=O)([N-]S(=O)(=O)C(F)(F)F)C(F)(F)F.[Li+] + O
323.15 K, 101 kPa
Conditions	viscosity [mPa·s]
x1 = 0.03	1.2
x1 = 0.0597	2.1
x1 = 0.1001	3.72
x1 = 0.1995	8.33
x1 = 0.298	23.19
x1 = 0.4016	56.22
x1 = 0.4908	103.5
x1 = 0.6602	251.5
x1 = 0.8109	498.1
x1 = 0.8996	741.6

NCCO + CCO
viscosity [mPa·s], 100 kPa
Conditions	x1 = 0.1	x1 = 0.2	x1 = 0.3	x1 = 0.4	x1 = 0.5	x1 = 0.6	x1 = 0.7	x1 = 0.8	x1 = 0.9
303.15 K	1.33	1.73	2.3	3.05	–	5.37	7.03	–	11.6
313.15 K	1.11	1.42	1.83	2.34	3.05	3.93	5.03	6.32	7.87
323.15 K	0.967	1.19	1.47	1.85	2.34	2.95	3.7	4.54	5.57

CC(C)(C)C1CCCCC1 + CCCCCCCCCCCCCCCC
viscosity [mPa·s], 102 kPa
Conditions	x1 = 0.1004	x1 = 0.2003	x1 = 0.3003	x1 = 0.4016	x1 = 0.5003	x1 = 0.6001	x1 = 0.7002	x1 = 0.8001	x1 = 0.8999
293.15 K	3.31	3.13	2.95	2.77	2.59	2.41	2.23	2.05	1.87
303.15 K	2.63	2.51	2.37	2.24	2.1	1.97	1.83	1.7	1.56
313.15 K	2.15	2.05	1.95	1.85	1.75	1.64	1.54	1.43	1.32
323.15 K	1.78	1.71	1.63	1.56	1.48	1.39	1.31	1.22	1.14

CCCCC(CC)C(=O)OCC(COC(=O)C(CC)CCCC)(COC(=O)C(CC)CCCC)COC(=O)C(CC)CCCC (stereo unspecified) + CCCCCCC(=O)OCC(COC(=O)CCCCCC)(COC(=O)CCCCCC)COC(=O)CCCCCC
100 kPa, x1 = 0.667
Conditions	viscosity [mPa·s]
303.15 K	51.7
313.15 K	32.6
323.15 K	20.7

CCCC[n+]1ccn(C)c1.C[C@H](N)C(=O)[O-] + OCc1ccccc1
101 kPa
Conditions	viscosity [mPa·s]
298.15 K, x1 = 0.4864	18.75
313.15 K, x1 = 0.6945	18.65

C1CCCC1 + CCCCO
101 kPa
Conditions	viscosity [mPa·s]
298.15 K, x1 = 0.0281	2.401
298.15 K, x1 = 0.0729	2.23
298.15 K, x1 = 0.1366	1.972
298.15 K, x1 = 0.2131	1.703
298.15 K, x1 = 0.268	1.533
298.15 K, x1 = 0.2928	1.448
298.15 K, x1 = 0.3216	1.358
298.15 K, x1 = 0.3809	1.205
298.15 K, x1 = 0.4426	1.035
298.15 K, x1 = 0.5285	0.8835
298.15 K, x1 = 0.5981	0.7551
298.15 K, x1 = 0.6858	0.6361
298.15 K, x1 = 0.7617	0.5622
298.15 K, x1 = 0.7948	0.5316
298.15 K, x1 = 0.8094	0.5193
298.15 K, x1 = 0.8797	0.4629
308.15 K, x1 = 0.004	1.958
308.15 K, x1 = 0.1227	1.614
308.15 K, x1 = 0.1427	1.583
308.15 K, x1 = 0.1774	1.556
308.15 K, x1 = 0.2185	1.381
308.15 K, x1 = 0.2585	1.358
308.15 K, x1 = 0.3367	1.164
308.15 K, x1 = 0.421	1.009
308.15 K, x1 = 0.494	0.8822
308.15 K, x1 = 0.5979	0.6995
308.15 K, x1 = 0.7214	0.5435
308.15 K, x1 = 0.8382	0.4404
308.15 K, x1 = 0.9315	0.3813
308.15 K, x1 = 0.9658	0.3641
308.15 K, x1 = 0.9781	0.3599

C1CCCC1 + C1COCO1
viscosity [mPa·s], 101.3 kPa
Conditions	x1 = 0.0988	x1 = 0.1997	x1 = 0.3005	x1 = 0.3997	x1 = 0.4992	x1 = 0.5979	x1 = 0.7027	x1 = 0.7987	x1 = 0.8995
298.15 K	0.5513	0.5176	0.4908	0.4685	0.4495	0.434	0.4216	0.4149	0.4124
313.15 K	0.4666	0.438	0.415	0.3968	0.3804	0.3679	0.3581	0.352	0.351

NCCO + C1COCCO1
101 kPa
Conditions	viscosity [mPa·s]
298.15 K, x2 = 0.0597	16.05
318.15 K, x2 = 0.5716	2.255

CCN(CC)C(C)=O + O
298.16 K, 101 kPa
Conditions	viscosity [mPa·s]
x2 = 0.065	1.32
x2 = 0.1626	1.56
x2 = 0.255	1.86
x2 = 0.3529	2.26
x2 = 0.4791	2.92
x2 = 0.6036	3.7
x2 = 0.6894	4.22
x2 = 0.7465	4.38
x2 = 0.7702	4.36
x2 = 0.8188	4.2
x2 = 0.9049	2.45

CC(C)(C)C1CCCCC1 + CCCCCCCCCCCC
viscosity [mPa·s], 102 kPa
Conditions	x1 = 0.1003	x1 = 0.2004	x1 = 0.3011	x1 = 0.4005	x1 = 0.5001	x1 = 0.601	x1 = 0.7001	x1 = 0.8003	x1 = 0.8991
293.15 K	1.5	1.5	1.5	1.51	1.53	1.54	1.57	1.6	1.64
303.15 K	1.26	1.26	1.27	1.27	1.28	1.3	1.32	1.34	1.38
313.15 K	1.07	1.07	1.08	1.09	1.09	1.11	1.13	1.15	1.17
323.15 K	0.92	0.925	0.933	0.939	0.946	0.958	0.975	0.992	1.01

Nc1ccccc1[N+](=O)[O-] + ClC(Cl)(Cl)Cl
viscosity [mPa·s], 101 kPa
Conditions	303.15 K	308.15 K	313.15 K	318.15 K	323.15 K
x1 = 0.02174	0.8952	0.8298	0.7841	0.7321	0.6886
x1 = 0.08489	–	1	0.9361	0.874	0.8093

CCC(=O)CC + ClC=C(Cl)Cl
viscosity [mPa·s], 101.33 kPa
Conditions	x2 = 0.1126	x2 = 0.2042	x2 = 0.2941	x2 = 0.4591	x2 = 0.5988	x2 = 0.6807	x2 = 0.7837	x2 = 0.8997
298.15 K	0.439	0.463	0.489	0.532	0.57	0.582	0.598	0.614
308.15 K	0.402	0.426	0.449	0.491	0.523	0.539	0.558	0.574
318.15 K	0.379	0.401	0.422	0.462	0.494	0.508	0.525	0.544
